Target: acetylcholinesterase from Electrophorus electricus (eelAChE) immobilized on magnetic beads (Electrophorus electricus, UniProt O42275)
Experiment: Ligand fishing assay using eelAChE-MB
Assay type: binding
Details: 100 nM reference compounds, individually and as a mixture

Sequence of acetylcholinesterase from Electrophorus electricus (eelAChE) immobilized on magnetic beads (O42275 24-633): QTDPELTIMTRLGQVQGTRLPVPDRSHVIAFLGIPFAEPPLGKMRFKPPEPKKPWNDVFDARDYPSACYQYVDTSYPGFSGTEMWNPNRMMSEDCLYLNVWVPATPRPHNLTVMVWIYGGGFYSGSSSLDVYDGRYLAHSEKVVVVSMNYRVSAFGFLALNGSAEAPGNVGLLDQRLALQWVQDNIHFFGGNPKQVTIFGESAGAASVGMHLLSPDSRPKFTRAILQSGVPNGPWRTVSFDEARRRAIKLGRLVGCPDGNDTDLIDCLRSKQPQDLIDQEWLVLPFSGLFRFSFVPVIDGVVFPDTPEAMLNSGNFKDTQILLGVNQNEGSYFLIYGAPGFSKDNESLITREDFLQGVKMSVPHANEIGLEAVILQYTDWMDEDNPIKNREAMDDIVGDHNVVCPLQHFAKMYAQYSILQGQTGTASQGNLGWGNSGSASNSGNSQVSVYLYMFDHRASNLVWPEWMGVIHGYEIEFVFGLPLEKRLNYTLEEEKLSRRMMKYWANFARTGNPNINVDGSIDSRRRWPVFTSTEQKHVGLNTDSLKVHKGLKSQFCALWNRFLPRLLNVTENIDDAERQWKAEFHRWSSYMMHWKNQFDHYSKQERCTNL

Row | SMILES | Presence in supernatants S-1 (unbound) and S-2 (eluted)
1 | CNC1(c2ccccc2Cl)CCCCC1=O (centres unmarked) [ketamine] | only present in S-1
2 | CC(CCc1ccccc1)NCC(O)c1ccc(O)c(C(N)=O)c1 (centres unmarked) [labetalol] | only present in S-1
